These results are taken from patent publication US8268848B2, “Cyclopropane compound” (Eisai R&D Management Co., Ltd., priority 2010, dated 2012).

Read-outs that look alike come from different tables or passages of the source. Some results are limits rather than exact numbers.

As a reminder, the IC50 is the midpoint of a concentration-inhibition curve.

In one test the target is T1, OX1 (Homo sapiens, UniProt O43613).
T1 sequence (O43613 1-425): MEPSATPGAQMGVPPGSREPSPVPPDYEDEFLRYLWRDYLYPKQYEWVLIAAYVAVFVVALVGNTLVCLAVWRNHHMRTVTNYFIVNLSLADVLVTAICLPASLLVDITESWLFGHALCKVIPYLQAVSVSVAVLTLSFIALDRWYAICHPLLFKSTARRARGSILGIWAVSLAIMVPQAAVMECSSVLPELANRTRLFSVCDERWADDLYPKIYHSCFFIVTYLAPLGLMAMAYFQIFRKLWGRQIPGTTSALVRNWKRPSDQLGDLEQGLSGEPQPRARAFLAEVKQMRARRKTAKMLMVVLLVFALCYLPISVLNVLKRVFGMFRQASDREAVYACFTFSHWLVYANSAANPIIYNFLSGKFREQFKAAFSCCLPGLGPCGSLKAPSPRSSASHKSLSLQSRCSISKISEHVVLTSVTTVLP
The test is described as follows: Measurement of orexin receptor-binding ability ([125I]-OX-A, cell membranes, OX1). Further details: expressed in transfected cells; host or cells: CHO cells (membrane preparation).

The target in a further test is T2, OX2 (Homo sapiens, UniProt O43614).
T2 sequence (O43614 1-444): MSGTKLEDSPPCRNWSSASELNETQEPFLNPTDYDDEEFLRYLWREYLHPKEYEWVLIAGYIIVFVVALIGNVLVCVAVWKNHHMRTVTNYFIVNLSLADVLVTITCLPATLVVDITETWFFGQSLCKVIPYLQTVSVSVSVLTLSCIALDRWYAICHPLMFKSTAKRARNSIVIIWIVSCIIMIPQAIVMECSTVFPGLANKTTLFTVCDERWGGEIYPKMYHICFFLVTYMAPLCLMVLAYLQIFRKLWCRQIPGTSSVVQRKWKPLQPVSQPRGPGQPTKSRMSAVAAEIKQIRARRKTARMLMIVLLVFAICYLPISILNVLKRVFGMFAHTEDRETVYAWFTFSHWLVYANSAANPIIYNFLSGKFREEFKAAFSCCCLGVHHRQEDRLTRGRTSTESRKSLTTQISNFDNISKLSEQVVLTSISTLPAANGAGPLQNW
The test can be described thus: Measurement of orexin receptor-binding ability ([125I]-OX-A, cell membranes, OX2). Further details: expressed in transfected cells; host or cells: CHO cells (membrane preparation). The settings on record: membranes of recombinant CHO cells expressing OX2, 0.2 nM [125I]-OX-A.

Where [1] appears, read: membranes of recombinant CHO cells expressing OX1, 0.2 nM [125I]-OX-A, read-out: OX1 (IC50).

In the case of `Cc1ncc(OC[C@@]2(c3ccccc3)C[C@H]2C(=O)Nc2cccc(F)c2)c(C)n1` [Example 79], the IC50 came out at 90 nM at OX1 and 26 nM on OX2 (OX2 (IC50) nM).

Regarding `Cc1ncc(OC[C@@]2(c3cccc(F)c3)C[C@H]2C(=O)Nc2ccccc2)c(C)n1` [Example 93, (1R,2S)-2-{[(2,4-dimethylpyrimidin-5-yl)oxy]methyl}-2-(3-fluorophenyl)-N-phenylcyclopropanecarboxamide], the results for the IC50 at OX1 and on OX2 (OX2 (IC50) nM) were 54 nM and 9 nM, respectively.

`Cc1ncc(OC[C@@]2(c3ccc(F)c(F)c3)C[C@H]2C(=O)Nc2ccc(C#N)cn2)c(C)n1` [Example 167, (1R,2S)-N-(5-cyanopyridin-2-yl)-2-(3,4-difluorophenyl)-2-{[(2,4-dimethylpyrimidin-5-yl)oxy]methyl}cyclopropanecarboxamide]: the IC50 on OX1 turned out to be 38 nM; on OX2 (OX2 (IC50) nM), 10 nM.

As to `Cc1nc(C)c(OC[C@@]2(c3cccc(F)c3)C[C@H]2C(=O)Nc2ccc(F)cn2)c(=O)[nH]1` [Example 326, (1R,2S)-2-{[(2,4-dimethyl-6-oxo-1,6-dihydropyrimidin-5-yl)oxy]methyl}-2-(3-fluorophenyl)-N-(5-fluoropyridin-2-yl)cyclopropanecarboxamide], the values for the IC50 on OX1 and on OX2 (OX2 (IC50) nM) were 123 nM and 6 nM, respectively.

In the case of `Cc1ncc(OC[C@@]2(c3ccccc3)C[C@H]2C(=O)Nc2cccc(CC#N)c2)c(C)n1` [Example 39, (1R,2S)-N-[3-(cyanomethyl)phenyl]-2-{[(2,4-dimethylpyrimidin-5-yl)oxy]methyl}-2-phenylcyclopropanecarboxamide], the IC50 on OX1 (setting [1]) worked out at 354 nM; at OX2 (read-out: OX2 (IC50)), 6 nM.

`Cc1ncc(OC[C@@]2(c3ccc(F)cc3)C[C@H]2C(=O)Nc2ccccn2)c(C)n1` [Example 110]: the IC50 at OX1 came to 340 nM; on OX2 (OX2 (IC50) nM) it was 110 nM.

As to `Cc1ncc(OC[C@@]2(c3ccccc3)C[C@H]2C(=O)Nc2cccc(Cl)c2)c(C)n1` [Example 24, (1R,2S)-N-(3-chlorophenyl)-2-{[(2,4-dimethylpyrimidin-5-yl)oxy]methyl}-2-phenylcyclopropanecarboxamide], the IC50 at OX1 (setting [1]) came out at 28 nM; on OX2 (read-out: OX2 (IC50)), 7 nM.

As for `Cc1ncc(OC[C@@]2(c3ccc(F)c(F)c3)C[C@H]2C(=O)Nc2ccccn2)c(C)n1` [Example 166, (1R,2S)-2-(3,4-difluorophenyl)-2-{[(2,4-dimethylpyrimidin-5-yl)oxy]methyl}-N-(pyridin-2-yl)cyclopropanecarboxamide], the IC50 at OX1 turned out to be 50 nM; at OX2 (OX2 (IC50) nM), 7 nM.

With `Cc1ncc(OC[C@@]2(c3cccc(C#N)c3)C[C@H]2C(=O)Nc2cc(C)c(F)cn2)c(C)n1` [Example 117, (1R,2S)-2-(3-cyanophenyl)-2-{[(2,4-dimethylpyrimidin-5-yl)oxy]methyl}-N-(5-fluoro-4-methylpyridin-2-yl)cyclopropanecarboxamide], the IC50 at OX1 (setting [1]) is 19 nM; at OX2 (read-out: OX2 (IC50)), 4 nM.

For `Cc1ncc(OCC2(c3cccc(Cl)c3)CC2C(=O)Nc2cccnc2)c(C)n1` (stereo not shown) [Example 157], the IC50 on OX1 came out at 397 nM; at OX2 (OX2 (IC50) nM) it was 69 nM.

On to `Cc1ncc(OC[C@@]2(c3cc(F)cc(F)c3)C[C@H]2c2nc3ncc(F)cc3[nH]2)c(C)n1` [Example 306, 2-{(1R,2S)-2-(3,5-difluorophenyl)-2-{[(2,4-dimethylpyrimidin-5-yl)oxy]methyl}cyclopropyl}-6-fluoro-1H-imidazo[4,5-b]pyridine], for which the values for the half-inhibitory concentration (IC50) at OX1 (setting [1]) and on OX2 (read-out: OX2 (IC50)) were 15 nM and 8 nM, respectively.

On to `Cc1ncc(OC[C@@]2(c3ccccc3)C[C@H]2C(=O)Nc2ccc3c(c2)NC(=O)CO3)c(C)n1` [Example 23], for which the IC50 on OX1 (setting [1]) came out at 1700 nM; at OX2 (read-out: OX2 (IC50)), 67 nM.

`Cc1ncc(OC[C@@]2(c3ccccc3)C[C@H]2C(=O)Nc2cccc(Cl)n2)c(C)n1` [Example 12]: the figures for the IC50 at OX1 (setting [1]) and on OX2 (read-out: OX2 (IC50)) were 247 nM and 53 nM, respectively.

On to `CCc1ncc(OC[C@@]2(c3ccccc3)C[C@H]2C(=O)Nc2ccc(F)cn2)c(C)n1` [Example 313], for which the IC50 on OX1 was determined as 224 nM; at OX2 (OX2 (IC50) nM), 107 nM.

With `Cc1ncc(OC[C@@]2(c3ccccc3)C[C@H]2C(=O)Nc2cccc(-c3nnc[nH]3)c2)c(C)n1` [Example 38], the half-inhibitory concentration (IC50) on OX1 (setting [1]) turned out to be 518 nM; at OX2 (read-out: OX2 (IC50)), 29 nM.

For the compound `COCc1cc(NC(=O)[C@@H]2C[C@@]2(COc2cnc(C)nc2C)c2ccccc2)ncc1F` [Example 71, (1R,2S)-2-{[(2,4-dimethylpyrimidin-5-yl)oxy]methyl}-N-[5-fluoro-4-(methoxymethyl)pyridin-2-yl]-2-phenylcyclopropanecarboxamide], the figures for the IC50 at OX1 (setting [1]) and on OX2 (read-out: OX2 (IC50)) were 52 nM and 5.1 nM, respectively.

On to `Cc1ncc(OC[C@@]2(c3ccccc3)C[C@H]2C(=O)Nc2cc(C(F)F)ccn2)c(C)n1` [Example 15], for which the IC50 amounted to 213 nM at OX1 and 41 nM at OX2 (OX2 (IC50) nM).

Turning to `Cc1ncc(OC[C@@]2(c3cc(F)cc(F)c3)C[C@H]2C(=O)Nc2ccccn2)c(C)n1` [Example 131, (1R,2S)-2-(3,5-difluorophenyl)-2-{[(2,4-dimethylpyrimidin-5-yl)oxy]methyl}-N-(pyridin-2-yl)cyclopropanecarboxamide], the values for the IC50 at OX1 and at OX2 (OX2 (IC50) nM) were 89 nM and 5 nM, respectively.

Consider `Cc1ncc(OC[C@@]2(c3cccs3)C[C@H]2C(=O)Nc2ccc(Cl)cn2)c(C)n1` [Example 267], for which the IC50 worked out at 118 nM on OX1 (setting [1]) and 64 nM at OX2 (read-out: OX2 (IC50)).

Consider `Cc1ncc(OC[C@@]2(c3cccc(F)c3)C[C@H]2C(=O)Nc2ccc(F)c(F)c2)c(C)n1` [Example 84, (1R,2S)-N-(3,4-difluorophenyl)-2-{[(2,4-dimethylpyrimidin-5-yl)oxy]methyl}-2-(3-fluorophenyl)cyclopropanecarboxamide], for which the figures for the IC50 at OX1 and on OX2 (OX2 (IC50) nM) were 6 nM and 3 nM, respectively.

In the case of `CCc1nc(C)ncc1OC[C@@]1(c2ccccc2)C[C@H]1C(=O)Nc1ccccn1` [Example 118, (1R,2S)-2-{[(4-ethyl-2-methylpyrimidin-5-yl)oxy]methyl}-2-phenyl-N-(pyridin-2-yl)cyclopropanecarboxamide], the figures for the IC50 at OX1 (setting [1]) and on OX2 (read-out: OX2 (IC50)) were 342 nM and 24 nM, respectively.

With `Cc1nc(C)[n+]([O-])cc1OC[C@@]1(c2cccc(F)c2)C[C@H]1C(=O)Nc1ccc(F)cn1` [Example 284], the IC50 on OX1 came to 112 nM; at OX2 (OX2 (IC50) nM), 6 nM.

On to `COCc1nc(C)ncc1OC[C@@]1(c2cc(F)cc(OC)c2)C[C@H]1C(=O)Nc1cc(C)c(F)cn1` [Example 234, (1R,2S)-2-(3-fluoro-5-methoxyphenyl)-N-(5-fluoro-4-methylpyridin-2-yl)-2-{[(4-methoxymethyl-2-methylpyrimidin-5-yl)oxy]methyl}cyclopropanecarboxamide], for which the IC50 on OX1 (setting [1]) is < 2 nM; on OX2 (read-out: OX2 (IC50)) it was 4 nM.

Turning to `Cc1ncc(OC[C@@]2(c3ccc(F)c(F)c3)C[C@H]2C(=O)Nc2ccc(F)cn2)c(C)n1` [Example 169, (1R,2S)-2-(3,4-difluorophenyl)-2-{[(2,4-dimethylpyrimidin-5-yl)oxy]methyl}-N-(5-fluoropyridin-2-yl)cyclopropanecarboxamide], the IC50 turned out to be 14 nM at OX1 and 4 nM on OX2 (OX2 (IC50) nM).

Turning to `Cc1ncc(OC[C@@]2(c3ccccc3)C[C@H]2C(=O)Nc2ccc(F)nc2)c(C)n1` [Example 53], the IC50 on OX1 (setting [1]) is 261 nM; at OX2 (read-out: OX2 (IC50)) it was 18 nM.

Consider `COCc1cc(NC(=O)[C@@H]2C[C@@]2(COc2cnc(C)nc2C)c2cccc(F)c2)ncc1F` [Example 86, (1R,2S)-2-{[(2,4-dimethylpyrimidin-5-yl)oxy]methyl}-N-(5-fluoro-4-methoxymethylpyridin-2-yl)-2-(3-fluorophenyl)cyclopropanecarboxamide], for which the results for the IC50 at OX1 and on OX2 (OX2 (IC50) nM) were 6.3 nM and 6.1 nM, respectively.

For the compound `Cc1ncc(OC[C@@]2(c3cccc(F)c3)C[C@H]2C(=O)Nc2ccc(F)cn2)c(C)[n+]1[O-]` [Example 285], the figures for the IC50 at OX1 and on OX2 (OX2 (IC50) nM) were 77 nM and 16 nM, respectively.

In the case of `Cc1ncc(OC[C@@]2(c3cccc(F)c3)C[C@H]2C(=O)Nc2ccc(F)cn2)c(CF)n1` [Example 320, (1R,2S)-2-{[(4-fluoromethyl-2-methylpyrimidin-5-yl)oxy]methyl}-2-(3-fluorophenyl)-N-(5-fluoropyridin-2-yl)cyclopropanecarboxamide], the IC50 stood at 12.3 nM on OX1 and 2.3 nM at OX2 (OX2 (IC50) nM).

`Cc1ncc(N(C)C[C@@]2(c3cccc(F)c3)C[C@H]2C(=O)Nc2cc(C)c(F)cn2)c(C)n1` [Example 293]: the figures for the half-maximal inhibitory concentration (IC50) on OX1 (setting [1]) and on OX2 (read-out: OX2 (IC50)) were 79 nM and 9 nM, respectively.
